The results in this text go back to patent publication US9598440B2, “Inhibitors of IRAK4 activity” (MERCK SHARP & DOHME CORP., priority 2012, dated 2017).

Sequence of IRAK4 (Q9NWZ3 whole entry): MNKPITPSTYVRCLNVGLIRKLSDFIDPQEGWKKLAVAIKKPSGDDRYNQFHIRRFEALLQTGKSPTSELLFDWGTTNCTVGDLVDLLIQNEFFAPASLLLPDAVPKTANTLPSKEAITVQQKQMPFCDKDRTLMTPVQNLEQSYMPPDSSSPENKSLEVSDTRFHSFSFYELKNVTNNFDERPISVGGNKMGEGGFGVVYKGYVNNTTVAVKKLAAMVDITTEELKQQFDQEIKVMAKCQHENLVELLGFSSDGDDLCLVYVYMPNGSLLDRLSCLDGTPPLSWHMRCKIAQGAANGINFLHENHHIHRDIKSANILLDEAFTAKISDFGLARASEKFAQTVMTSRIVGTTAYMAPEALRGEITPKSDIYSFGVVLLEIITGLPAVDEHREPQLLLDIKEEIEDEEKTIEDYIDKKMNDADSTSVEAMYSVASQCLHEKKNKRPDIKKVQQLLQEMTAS

For the assay, the target named is IRAK4 (Homo sapiens (Human), UniProt Q9NWZ3). Description: Determination of IRAK4 kinase activity (IMAP fluorescence polarization, phosphorylation of fluorescent peptide substrate). It is filed as biochemical. Conditions: 0.5 nM GST tagged IRAK4, 100 nM peptide substrate RP7030, 100 μM ATP, 30 minutes at 25° C. Here is the method:
The kinase activity of IRAK4 is determined by its ability to catalyze the phosphorylation of a fluorescent polypeptide substrate. The extent of phosphorylation is measured using IMAP technology (Molecular Devices) where the phosphorylated fluorescent substrate binds to the large M(III)-based nanoparticles which reduces the rotational speed of the substrate and thus increases its fluorescent polarization (FP).
Procedure: A 20 μl reaction mixture contains 10 mM TriHCl, pH 7.2, 0.5 nM GST tagged IRAK4 (SignalChem), 100 nM fluorescent peptide substrate (RP7030, Molecular Devices), 100 μM ATP, 1 mM DTT, 1 mM MgCl2, and 0.01% Tween 20. The reaction is initiated by the addition of ATP. After incubation for 30 minutes at 25° C., 60 μl of Progressive IMAP Reagent (Molecular Devices) is added to stop the reaction. Change in RP7030's FP is determined by a FP reader (Analyst HT, LJL BioSystems). Analytical LCMS Conditions: • Condition A: Phenomenex Luna C18 (4.6×250 mm), 95:5 to 5:95 water:MeCN (0.05% TFA), over 10 min, hold 6 min. • Condition B: Agilent SBC (3.0×50 mm), solvent A: H20-0.1% TFA; • solvent B: ACN-0.1% TFA; GRADIENT TABLE: 0 min:10% B, 0.3 min: 10% B, 1.5 min: 95% B, 2.70 min: 95% B, 2.76 min: 10% B, stop time 3.60 min.
The molecule `CN1CCN(c2cccc(Nc3ncc(-c4nc5ccccc5s4)c(N[C@@H]4C[C@H](CO)[C@@H](O)[C@H]4O)n3)c2)CC1` [Example 45, (1R,2S,3R,5R)-3-((5-(benzo[d]thiazol-2-yl)-2-((3-(4-methylpiperazin-1-yl)phenyl)amino)pyrimidin-4-yl)amino)-5-(hydroxymethyl)cyclopentane-1,2-diol] returned a 50% inhibitory concentration (IC50) of 2.6 nM.

Turning to `COc1cccc(Nc2ncc(-c3nc4ccccc4s3)c(N[C@@H]3CC(C(C)(C)O)[C@@H](O)[C@H]3O)n2)c1` (stereo in doubt) [Example 117, 5-(benzo[d]thiazol-2-yl)-6-(((1R,2S,3R,4R)-2,3-dihydroxy-4-(2-hydroxypropan-2-yl)cyclopentyl)amino)-2-((3-methoxyphenyl)amino)pyrimidine], the half-maximal inhibitory concentration (IC50) worked out at 20 nM.

The molecule `OC[C@H]1C[C@@H](Nc2nc(Nc3ccccc3O)ncc2-c2nc3ccccc3s2)[C@H](O)[C@@H]1O` [Example 22, (1R,2S,3R,5R)-3-((5-(benzo[d]thiazol-2-yl)-2-((2-hydroxyphenyl)amino)pyrimidin-4-yl)amino)-5-(hydroxymethyl)cyclopentane-1,2-diol] gave an IC50 of 1240 nM.

As to `CN1CCN(c2ccc(Nc3ncc(-c4nc5ccccc5s4)c(N[C@@H]4C[C@H](CO)[C@@H](O)[C@H]4O)n3)cc2)CC1` [Example 44, (1R,2S,3R,5R)-3-((5-(benzo[d]thiazol-2-yl)-2-((4-(4-methylpiperazin-1-yl)phenyl)amino)pyrimidin-4-yl)amino)-5-(hydroxymethyl)cyclopentane-1,2-diol], the IC50 came out at 3 nM.

The molecule `CC(C)Oc1cc(Nc2ncc(-c3ccc4ccccc4n3)c(N[C@@H]3C[C@H](CO)[C@@H](O)[C@H]3O)n2)ccn1` [Example 61, 6-(((1R,2S,3R,4R)-2,3-dihydroxy-4-(hydroxymethyl)cyclopentyl)amino)-2-((2-isopropoxypyridin-4-yl)amino)-5-(quinolin-2-yl)pyrimidine] yielded an IC50 of 27 nM.

`CC(C)(O)[C@H]1C[C@@H](Nc2nc(NC3CCC3)ncc2-c2nc3ccccc3s2)[C@H](O)[C@@H]1O` [Example 128, (1R,2S,3R,5S)-3-((5-(benzo[d]thiazol-2-yl)-2-(cyclobutylamino)pyrimidin-4-yl)amino)-5-(2-hydroxypropan-2-yl)cyclopentane-1,2-diol]: the half-maximal inhibitory concentration (IC50) was 50 nM. Against the preceding molecule, the IC50 is about 1.9-fold higher.

The molecule `Cc1cc(Nc2ncc(-c3nc4ccncc4s3)c(N[C@@H]3C[C@H](CO)[C@@H](O)[C@H]3O)n2)ccn1` [Example 77, 6-(((1R,2S,3R,4R)-2,3-dihydroxy-4-(hydroxymethyl)cyclopentyl)amino)-2-((2-methylpyridin-4-yl)amino)-5-(thiazolo[5,4-c]pyridin-2-yl)pyrimidine] came in with an IC50 of 8 nM.

For `COc1cc(Nc2cc(N[C@@H]3C[C@H](C(C)(C)O)[C@@H](O)[C@H]3O)c(-c3ccc4ccccc4n3)cn2)ccn1` [Example 163, (1S,2R,3S,5R)-3-(2-hydroxypropan-2-yl)-5-((2-((2-methoxypyridin-4-yl)amino)-5-(quinolin-2-yl)pyridin-4-yl)amino)cyclopentane-1,2-diol], the half-inhibitory concentration (IC50) worked out at 20 nM.

For the molecule `COc1cccc([C@@H](C)Nc2ncc(-c3nc4ccccc4s3)c(N[C@@H]3C[C@H](CO)[C@@H](O)[C@H]3O)n2)c1` [Example 36, (1R,2S,3R,5R)-3-((5-(benzo[d]thiazol-2-yl)-2-(((R)-1-(3-methoxyphenyl)ethyl)amino)pyrimidin-4-yl)amino)-5-(hydroxymethyl)cyclopentane-1,2-diol], the 50% inhibitory concentration (IC50) stood at 470 nM.

Molecule `OC[C@H]1C[C@@H](Nc2nc(Nc3cncnc3)ncc2-c2nc3ccccc3s2)[C@H](O)[C@@H]1O` [Example 26, (1R,2S,3R,5R)-3-((5-(benzo[d]thiazol-2-yl)-2-(pyrimidin-5-ylamino)pyrimidin-4-yl)amino)-5-(hydroxymethyl)cyclopentane-1,2-diol] yielded an IC50 of 4.8 nM.

Turning to `Nc1ncc(-c2nc(-c3ccccc3)cs2)c(N[C@@H]2C[C@H](CO)[C@@H](O)[C@H]2O)n1` [Example 11, (1R,2S,3R,5R)-3-((2-amino-5-(4-phenylthiazol-2-yl)pyrimidin-4-yl)amino)-5-(hydroxymethyl)cyclopentane-1,2-diol], the IC50 turned out to be 409 nM.

For `COCCCNc1ncc(-c2nc3ccccc3s2)c(N[C@@H]2C[C@H](CO)[C@@H](O)[C@H]2O)n1` [Example 16, (1R,2S,3R,5R)-3-((5-(benzo[d]thiazol-2-yl)-2-((3-methoxypropyl)amino)pyrimidin-4-yl)amino)-5-(hydroxymethyl)cyclopentane-1,2-diol], the IC50 amounted to 228 nM.

With `Cc1nc(N2CCC(C)CC2)nc(N[C@@H]2C[C@H](CO)[C@@H](O)[C@H]2O)c1-c1nc2ccccc2s1` [Example 98, (1R,2S,3R,5R)-3-((5-(benzo[d]thiazol-2-yl)-6-methyl-2-(4-methylpiperidin-1-yl)pyrimidin-4-yl)amino)-5-(hydroxymethyl)cyclopentane-1,2-diol], it took 948 nM to reach half-maximal inhibition (IC50). Compared with the last molecule, the IC50 is about 4.2-fold higher.

In the case of `COc1cc(Nc2cc(N[C@@H]3C[C@H](CO)[C@@H](O)[C@H]3O)c(-c3nc4ccccc4s3)cn2)ccn1` [Example 155, (1R,2S,3R,5R)-3-((5-(benzo[d]thiazol-2-yl)-2-((2-methoxypyridin-4-yl)amino)pyridin-4-yl)amino)-5-(hydroxymethyl)cyclopentane-1,2-diol], the concentration for half-maximal inhibition (IC50) was 370 nM.

`Nc1ncc(-c2nc3cccnc3s2)c(N[C@@H]2C[C@H](CO)[C@@H](O)[C@H]2O)n1` [Example 83, (1R,2S,3R,5R)-3-((2-amino-5-(thiazolo[5,4-b]pyridin-2-yl)pyrimidin-4-yl)amino)-5-(hydroxymethyl)cyclopentane-1,2-diol]: the IC50 is 1.03 nM.

`Cc1nc(Nc2cccnc2)nc(N[C@@H]2C[C@H](CO)[C@@H](O)[C@H]2O)c1-c1nc2ccccc2s1` [Example 99, (1R,2S,3R,5R)-3-((5-(benzo[d]thiazol-2-yl)-6-methyl-2-(pyridin-3-ylamino)pyrimidin-4-yl)amino)-5-(hydroxymethyl)cyclopentane-1,2-diol]: 292 nM corresponded to half-maximal inhibition (IC50).

Regarding `OC[C@H]1C[C@@H](Nc2nc(Nc3ccc4[nH]ccc4c3)ncc2-c2nc3ccccc3s2)[C@H](O)[C@@H]1O` [Example 23, (1R,2S,3R,5R)-3-((2-((1H-indol-5-yl)amino)-5-(benzo[d]thiazol-2-yl)pyrimidin-4-yl)amino)-5-(hydroxymethyl)cyclopentane-1,2-diol], the half-inhibitory concentration (IC50) was determined as 20 nM.

Take `Cc1cc(Nc2ncc(-c3nc4ccccc4s3)c(N[C@@H]3C[C@H](CO)[C@@H](O)[C@H]3O)n2)cc(C)n1` [Example 9, (1R,2S,3R,5R)-3-((5-(benzo[d]thiazol-2-yl)-2-((2,6-dimethylpyridin-4-yl)amino)pyrimidin-4-yl)amino)-5-(hydroxymethyl)cyclopentane-1,2-diol]: the IC50 came out at 0.32 nM.

`CN1CCCC(Nc2ncc(-c3nc4ccccc4s3)c(N[C@@H]3C[C@H](CO)[C@@H](O)[C@H]3O)n2)C1` (mixture of isomers) [Example 32, (1R,2S,3R,5R)-3-((5-(benzo[d]thiazol-2-yl)-2-(((RS)-1-methylpiperidin-3-yl)amino)pyrimidin-4-yl)amino)-5-(hydroxymethyl)cyclopentane-1,2-diol] yielded an IC50 of 934 nM.

In turn, `COc1cccc(Nc2nc(C)c(-c3nc4ccccc4s3)c(N[C@@H]3C[C@H](CO)[C@@H](O)[C@H]3O)n2)c1` [Example 94, (1R,2S,3R,5R)-3-((5-(benzo[d]thiazol-2-yl)-2-((3-methoxyphenyl)amino)-6-methylpyrimidin-4-yl)amino)-5-(hydroxymethyl)cyclopentane-1,2-diol] returned an IC50 of 870 nM.

`COc1cc(Nc2ncc(-c3nc4cnccc4s3)c(N[C@@H]3CC(C(C)(C)O)[C@@H](O)[C@H]3O)n2)ccn1` (stereo in doubt) [Example 136, 6-(((1R,2S,3R,4R)-2,3-dihydroxy-4-(2-hydroxypropan-2-yl)cyclopentyl)amino)-2-((2-methoxypyridin-4-yl)amino)-5-(thiazolo[4,5-c]pyridin-2-yl)pyrimidine] registered a concentration for half-maximal inhibition (IC50) of 0.7 nM.

In turn, `OC[C@H]1C[C@@H](Nc2nc(NC3CCCC3)ncc2-c2nc3ccccc3s2)[C@H](O)[C@@H]1O` [Example 33, (1R,2S,3R,5R)-3-((5-(benzo[d]thiazol-2-yl)-2-(cyclopentylamino)pyrimidin-4-yl)amino)-5-(hydroxymethyl)cyclopentane-1,2-diol] showed a half-inhibitory concentration (IC50) of 496 nM.

The molecule `Nc1ccc(-c2nc3ccccc3s2)c(N[C@@H]2C[C@H](CO)[C@@H](O)[C@H]2O)n1` [Example 158, (1R,2S,3R,5R)-3-((6-amino-3-(benzo[d]thiazol-2-yl)pyridin-2-yl)amino)-5-(hydroxymethyl)cyclopentane-1,2-diol] gave an IC50 of 9510 nM.

With `CN(C)c1ccc(Nc2ncc(-c3nc4ccccc4s3)c(N[C@@H]3C[C@H](CO)[C@@H](O)[C@H]3O)n2)cc1` [Example 34, (1R,2S,3R,5R)-3-((5-(benzo[d]thiazol-2-yl)-2-((4-(dimethylamino)phenyl)amino)pyrimidin-4-yl)amino)-5-(hydroxymethyl)cyclopentane-1,2-diol], the IC50 came to 12 nM.

Usually IC50 stands for the concentration at which inhibition is half-maximal.
